We go through 21 molecules from patent US8119681B2, “2-[1-phenyl-5-hydroxy or methoxy-4alpha-methyl-hexahydrocyclopenta [ƒ]indazole-5-YL]ethyl phenyl derivatives as glucocorticoid receptor ligands” (Merck Sharp & Dohme Corp., priority 2006, dated 2012).

SMILES strings stand for the structures.

In this experiment the target is T1, human GR (Homo sapiens, UniProt P04150).
T1 sequence (P04150 1-777): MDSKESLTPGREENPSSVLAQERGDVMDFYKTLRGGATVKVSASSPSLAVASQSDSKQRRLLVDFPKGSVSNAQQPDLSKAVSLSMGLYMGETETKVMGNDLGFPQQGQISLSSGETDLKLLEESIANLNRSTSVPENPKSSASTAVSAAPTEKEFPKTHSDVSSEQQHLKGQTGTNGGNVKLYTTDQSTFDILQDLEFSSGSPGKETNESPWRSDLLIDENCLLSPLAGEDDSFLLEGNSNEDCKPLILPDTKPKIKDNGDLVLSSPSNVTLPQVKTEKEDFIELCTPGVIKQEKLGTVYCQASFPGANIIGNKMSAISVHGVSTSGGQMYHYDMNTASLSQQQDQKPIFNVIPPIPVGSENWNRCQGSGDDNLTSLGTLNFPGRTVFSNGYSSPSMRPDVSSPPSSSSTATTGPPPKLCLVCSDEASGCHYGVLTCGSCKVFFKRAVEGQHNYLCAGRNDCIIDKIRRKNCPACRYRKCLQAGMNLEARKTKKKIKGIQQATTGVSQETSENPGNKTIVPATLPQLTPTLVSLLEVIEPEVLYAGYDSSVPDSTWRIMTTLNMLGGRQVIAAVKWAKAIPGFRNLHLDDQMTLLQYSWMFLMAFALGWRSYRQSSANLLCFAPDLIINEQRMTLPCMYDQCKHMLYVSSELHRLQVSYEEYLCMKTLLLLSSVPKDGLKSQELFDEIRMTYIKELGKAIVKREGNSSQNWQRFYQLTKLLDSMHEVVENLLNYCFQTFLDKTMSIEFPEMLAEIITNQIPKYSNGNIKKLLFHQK
As to the kind of experiment: Transrepression Assay (GITAR), TNFα-β-lactamase reporter gene in U937 cells. As to conditions: U-937; 100 nM dexamethasone = 100% activity; read-out: maximal activity in the transrepression assay. The arrangement: U937 cells contain an endogenous glucocorticoid receptor (GR); endogenous in cells; host or cells: U937 cells stably transfected with the TNF-α promoter/β-lactamase reporter only. Format: cell-based. An outline of the steps: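 Reporter readout used CCF2-AM loading for 70–90 min at room temperature after overnight (~18 h, 37 °C) PMA (5 ng/ml final) and LPS (100 ng/ml final) stimulation of compound-treated (30–45 min) TNFα-β-lactamase U937 cells expressing native GR. Activity was normalised to 100 nM dexamethasone repression.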
For orientation: In a reporter assay the amount or activity of a reporter protein is the signal.
In the case of `C[C@H](NS(=O)(=O)C1CC1)c1ccccc1CC[C@]1(O)CCC2=Cc3c(cnn3-c3ccc(F)cc3)C[C@@]21C` [Example 95, N-[(1S)-1-(2-{2-[(4αS,5R)-1-(4-fluorophenyl)-5-hydroxy-4α-methyl-1,4,4α,5,6,7-hexahydrocyclopenta[f]indazol-5-yl]ethyl}phenyl)ethyl]cyclopropanesulfonamide], the Emax was in the range of 5 to 100%. With `C[C@@H](NS(=O)(=O)CC(F)(F)F)c1c(F)cccc1CC[C@]1(O)CCC2=Cc3c(cnn3-c3ccc(F)cc3)C[C@@]21C` [Example 96, 2,2,2-trifluoro-N-[(1R)-1-(2-fluoro-6-{2-[(4αS,5R)-1-(4-fluorophenyl)-5-hydroxy-4α-methyl-1,4,4α,5,6,7-hexahydrocyclopenta[f]indazol-5-yl]ethyl}phenyl)ethyl]ethanesulfonamide] the figure was 5 to 100%; with `C[C@]12Cc3cnn(-c4ccc(F)cc4)c3C=C1CC[C@@]2(O)CCc1cccc(F)c1CNS(=O)(=O)CS(C)(=O)=O` [Example 97, N-(2-fluoro-6-{2-[(4αS,5R)-1-(4-fluorophenyl)-5-hydroxy-4α-methyl-1,4,4α,5,6,7-hexahydrocyclopenta[f]indazol-5-yl]ethyl}benzyl)-1-(methylsulfonyl)methanesulfonamide], 5 to 100%; with `C[C@]12Cc3cnn(-c4ccc(F)cc4)c3C=C1CC[C@@]2(O)CCc1cccc(F)c1CNS(C)(=O)=O` [Example 98, N-(2-fluoro-6-{2-[(4αS,5R)-1-(4-fluorophenyl)-5-hydroxy-4α-methyl-1,4,4α,5,6,7-hexahydrocyclopenta[f]indazol-5-yl]ethyl}benzyl)methanesulfonamide], 5 to 100%.

Regarding `C[C@H](NS(=O)(=O)CC(F)(F)F)c1c(F)cccc1CC[C@]1(O)CCC2=Cc3c(cnn3-c3ccc(F)cc3)C[C@@]21C` [Example 99, 2,2,2-trifluoro-N-[(1S)-1-(2-fluoro-6-{2-[(4αS,5R)-1-(4-fluorophenyl)-5-hydroxy-4α-methyl-1,4,4α,5,6,7-hexahydrocyclopenta[f]indazol-5-yl]ethyl}phenyl)ethyl]ethanesulfonamide], the Emax lay in the range of 5 to 100%.

As to `C[C@]12Cc3cnn(-c4ccc(F)cc4)c3C=C1CC[C@@]2(O)CCc1cccc(F)c1C1(NS(=O)(=O)C2CC2)CC1` [Example 100, N-[1-(2-fluoro-6-{2-[(4αS,5R)-1-(4-fluorophenyl)-5-hydroxy-4α-methyl-1,4,4α,5,6,7-hexahydrocyclopenta[f]indazol-5-yl]ethyl}phenyl)cyclopropyl]cyclopropanesulfonamide], the Emax lay in the range of 5 to 100%.

Regarding `C[C@]12Cc3cnn(-c4ccc(F)cc4)c3C=C1CC[C@@]2(O)CCc1cccc(F)c1[C@@H](NS(=O)(=O)CC(F)(F)F)C(F)(F)F` [Example 101, 2,2,2-trifluoro-N-[(1R)-2,2,2-trifluoro-1-(2-fluoro-6-{2-[(4αS,5R)-1-(4-fluorophenyl)-5-hydroxy-4α-methyl-1,4,4α,5,6,7-hexahydrocyclopenta[f]indazol-5-yl]ethyl}phenyl)ethyl]ethanesulfonamide], the Emax lay within 5 to 100%. Regarding `C[C@]12Cc3cnn(-c4ccc(F)cc4)c3C=C1CC[C@@]2(O)CCc1cccc(F)c1C1(NS(=O)(=O)CC(F)(F)F)CC1` [Example 102, 2,2,2-trifluoro-N-[1-(2-fluoro-6-{2-[(4αS,5R)-1-(4-fluorophenyl)-5-hydroxy-4α-methyl-1,4,4α,5,6,7-hexahydrocyclopenta[f]indazol-5-102yl]ethyl}phenyl)cyclopropyl]ethanesulfonamide], the Emax was 5 to 100%. Consider `C[C@]12Cc3cnn(-c4ccc(F)cc4)c3C=C1CC[C@@]2(O)CCc1ccccc1CNCC1CC1` [Example 103, (4αS,5R)-5-[2-(2-{[(cyclopropylmethyl}amino]methyl}phenyl)ethyl]-1-(4-fluorophenyl)-4α-methyl-1,4,4α,5,6,7-hexahydrocyclopenta[f]indazol-5-ol], for which the Emax was 5 to 100%. With `C[C@]12Cc3cnn(-c4ccc(F)cc4)c3C=C1CC[C@@]2(O)CCc1ccccc1CNCC(F)(F)F` [Example 104, (4αS,5R)-1-(4-fluorophenyl)-4α-methyl-5-[2-[2-{[(2,2,2-trifluoroethyl)amino]methyl}phenyl)ethyl]-1,4,4α,5,6,7-hexahydrocyclopenta[f]indazol-5-ol], the Emax lay within 5 to 100%. As for `CC(=O)NCc1ccccc1CC[C@]1(O)CCC2=Cc3c(cnn3-c3ccc(F)cc3)C[C@@]21C` [Example 105, N-(2-{2-[(4αS,5R)-1-(4-fluorophenyl)-5-hydroxy-4α-methyl-1,4,4α,5,6,7-hexahydrocyclopenta[f]indazol-5-yl]ethyl}benzyl)acetamide], the Emax lay in the range of 5 to 100%.

Take `CCNC(=O)Cc1ccccc1CC[C@]1(O)CCC2=Cc3c(cnn3-c3ccc(F)cc3)C[C@@]21C` [Example 106, N-ethyl-2-(2-{2-[(4αS,5R)-1-(4-fluorophenyl)-5-hydroxy-4α-methyl-1,4,4α,5,6,7-hexahydrocyclopenta[f]indazol-5-yl]ethyl}phenyl)acetamide]: the Emax was in the range of 5 to 100%.

For `CN(C)C(=O)Cc1ccccc1CC[C@]1(O)CCC2=Cc3c(cnn3-c3ccc(F)cc3)C[C@@]21C` [Example 108, 2-(2-{2-[(4αS,5R)-1-(4-fluorophenyl)-5-hydroxy-4α-methyl-1,4,4α,5,6,7-hexahydrocyclopenta[f]indazol-5-yl]ethyl}phenyl)-N,N-dimethylacetamide], the Emax fell in the range of 5 to 100%.

For `C[C@]12Cc3cnn(-c4ccc(F)cc4)c3C=C1CC[C@@]2(O)CCc1ccccc1CC(=O)NC1CC1` [Example 109, N-cyclopropyl-2-(2-{2-[(4αS,5R)-1-(4-fluorophenyl)-5-hydroxy-4α-methyl-1,4,4α,5,6,7-hexahydrocyclopenta[f]indazol-5-yl]ethyl}phenyl)acetamide], the Emax fell in the range of 5 to 100%. Consider `C[C@]12Cc3cnn(-c4ccc(F)cc4)c3C=C1CC[C@@]2(O)CCc1cccc(F)c1N1CCC1=O` [Example 110, 1-(2-fluoro-6-{2-[(4αS,5R)-1-(4-fluorophenyl)-5-hydroxy-4α-methyl-1,4,4α,5,6,7-hexahydrocyclopenta[f]indazol-5-yl]ethyl}phenyl)azetidin-2-one], for which the Emax was in the range of 5 to 100%. With `C[C@]12Cc3cnn(-c4ccc(F)cc4)c3C=C1CC[C@@]2(O)CCc1ccccc1N1CCCC1=O` [Example 111, 1-(2-{2-[(4αS,5R)-1-(4-fluorophenyl)-5-hydroxy-4α-methyl-1,4,4α,5,6,7-hexahydrocyclopenta[f]indazol-5-yl]ethyl}phenyl)pyrrolidin-2-one] the figure was 5 to 100%; with `C[C@]12Cc3cnn(-c4ccc(F)cc4)c3C=C1CC[C@@]2(O)CCc1cc(F)ccc1N` [Example 112, (4αS,5R)-5-[2-(2-amino-5-fluorophenyl)ethyl]-1-(4-fluorophenyl)-4α-methyl-1,4,4α,5,6,7-hexahydrocyclopenta[f]indazol-5-ol], 5 to 100%. Turning to `C[C@]12Cc3cnn(-c4ccc(F)cc4)c3C=C1CC[C@@]2(O)CCc1ccccc1NS(C)(=O)=O` [Example 115, N-(2-{2-[(4αS,5R)-1-(4-fluorophenyl)-5-hydroxy-4α-methyl-1,4,4α,5,6,7-hexahydrocyclopenta[f]indazol-5-yl]ethyl}phenyl)methanesulfonamide], the Emax fell in the range of 5 to 100%.

On to `C[C@]12Cc3cnn(-c4ccc(F)cc4)c3C=C1CC[C@@]2(O)CCc1cccc(F)c1NS(=O)(=O)CC(F)(F)F` [Example 116, 2,2,2-trifluoro-N-(2-fluoro-6-{2-[(4αS,5R)-1-(4-fluorophenyl)-5-hydroxy-4α-methyl-1,4,4α,5,6,7-hexahydrocyclopenta[f]indazol-5-yl]ethyl}phenyl)ethanesulfonamide], for which the Emax was 5 to 100%. On to `CN(C)S(=O)(=O)Nc1ccc(F)cc1CC[C@]1(O)CCC2=Cc3c(cnn3-c3ccc(F)cc3)C[C@@]21C` [Example 117, N′-(4-fluoro-2-{2-[(4αS,5R)-1-(4-fluorophenyl)-5-hydroxy-4α-methyl-1,4,4α,5,6,7-hexahydrocyclopenta[f]indazol-5-yl]ethyl}phenyl)-N,N-dimethylsulfamide], for which the Emax was 5 to 100%. Consider `C[C@]12Cc3cnn(-c4ccc(F)cc4)c3C=C1CC[C@@]2(O)CCc1ccccc1NS(=O)(=O)CC(F)(F)F` [Example 118, 2,2,2-trifluoro-N-(2-{2-[(4αS,5R)-1-(4-fluorophenyl)-5-hydroxy-4α-methyl-1,4,4α,5,6,7-hexahydrocyclopenta[f]indazol-5-yl]ethyl}phenyl)ethanesulfonamide], for which the Emax was 5 to 100%.
